In ChEMBL document CHEMBL3045104, “Synthesis and antibacterial activity of 4-benzoyl-1-(4-carboxy-phenyl)-5-phenyl-1H-pyrazole-3-carboxylic acid and derivatives” (2009):
Active and inactive are the calls of the source.

Experiments:
Assay type in all cases: functional
[1] = test system: Bacillus subtilis; experiment: Antimicrobial activity against Bacillus subtilis ATCC 6633 after overnight incubation by microdilution broth susceptibility assay
[2] = test system: Proteus vulgaris; experiment: Antimicrobial activity against Proteus vulgaris Kuk. 1329 after overnight incubation by microdilution broth susceptibility assay
[3] = test system: Pseudomonas aeruginosa; experiment: Antimicrobial activity against Pseudomonas aeruginosa ATCC 9027 after overnight incubation by microdilution broth susceptibility assay
[4] = test system: Staphylococcus aureus; experiment: Antimicrobial activity against Staphylococcus aureus ATCC 29213 after overnight incubation by microdilution broth susceptibility assay
[5] = test system: Enterococcus faecalis; experiment: Antimicrobial activity against Enterococcus faecalis ATCC 29122 after overnight incubation by microdilution broth susceptibility assay
[6] = test system: Xanthomonas campestris; experiment: Antimicrobial activity against Xanthomonas campestris A235 after overnight incubation by microdilution broth susceptibility assay
[7] = test system: Klebsiella pneumoniae; experiment: Antimicrobial activity against Klebsiella pneumoniae A137 after overnight incubation by microdilution broth susceptibility assay
[8] = test system: Escherichia coli; experiment: Antimicrobial activity against Escherichia coli B3704 after overnight incubation by microdilution broth susceptibility assay
[9] = test system: Streptococcus pyogenes; experiment: Antimicrobial activity against Streptococcus pyogenes ATCC 176 after overnight incubation by microdilution broth susceptibility assay
[10] = test system: Salmonella enteritidis; experiment: Antimicrobial activity against Salmonella enterica subsp. enterica serovar Enteritidis ATCC 1376 after overnight incubation by microdilution broth susceptibility assay

Measured: MIC

O=C(N[C@H](CO)[C@H](O)c1ccc([N+](=O)[O-])cc1)C(Cl)Cl [CHLORAMPHENICOL]
19 µM: [4] | [8]
74 µM: [1] | [2] | [3] | [10]
37 µM: all other assays above

O=C(O)c1ccc(-n2nc3c(=O)[nH]nc(-c4ccccc4)c3c2-c2ccccc2)cc1
313 µM: [1] | [6]
157 µM: [2] | [3] | [7] | [8]
inactive: all other assays above

NC(=O)c1ccc(-n2nc(C(N)=O)c(C(=O)c3ccccc3)c2-c2ccccc2)cc1
156 µM: [7] | [8]
inactive: all other assays above

CCCCCNC(=O)c1ccc(-n2nc(C(=O)NCCCCC)c(C(=O)c3ccccc3)c2-c2ccccc2)cc1
232 µM: [1]
116 µM: [7] | [8]
inactive: all other assays above

O=C(O)c1ccc(-n2nc3c(=O)n(-c4ccccc4)nc(-c4ccccc4)c3c2-c2ccccc2)cc1
132 µM: [3] | [7] | [8]
264 µM: [1] | [6]
inactive: all other assays above

CCOC(=O)c1ccc(-n2nc(C(=O)OCC)c(C(=O)c3ccccc3)c2-c2ccccc2)cc1
137 µM: [1] | [7] | [8]
inactive: all other assays above

O=C(O)c1ccc(-n2nc(C(=O)O)c(C(=O)c3ccccc3)c2-c2ccccc2)cc1
155 µM: [7] | [8]
310 µM: [1] | [4]
78 µM: [6]
inactive: all other assays above

N#Cc1ccc(-n2nc(C#N)c(C(=O)c3ccccc3)c2-c2ccccc2)cc1
342 µM: [6]
171 µM: [1] | [7] | [8]
inactive: all other assays above

CCNC(=O)c1ccc(-n2nc(C(=O)NCC)c(C(=O)c3ccccc3)c2-c2ccccc2)cc1
274 µM: [1] | [6]
137 µM: [7] | [8]
inactive: all other assays above

O=C(O)c1ccc(N/N=C(\c2ccccc2)c2c(-c3ccccc3)nn(-c3ccc(C(=O)O)cc3)c(=O)c2O)cc1
117 µM: [7] | [8]
inactive: all other assays above

CC(C)OC(=O)c1ccc(-n2nc(C(=O)OC(C)C)c(C(=O)c3ccccc3)c2-c2ccccc2)cc1
258 µM: [6]
129 µM: [1] | [7] | [8]
inactive: all other assays above

Cn1nc(-c2ccccc2)c2c(-c3ccccc3)n(-c3ccc(C(=O)O)cc3)nc2c1=O
303 µM: [1] | [3] | [6]
152 µM: [7] | [8]
inactive: all other assays above

CCN(CC)C(=O)c1ccc(-n2nc(C(=O)N(CC)CC)c(C(=O)c3ccccc3)c2-c2ccccc2)cc1
245 µM: [1] | [6]
123 µM: [7] | [8]
inactive: all other assays above

O=C(Cl)c1ccc(-n2nc(C(=O)Cl)c(C(=O)c3ccccc3)c2-c2ccccc2)cc1
285 µM: [6]
142 µM: [7] | [8]
inactive: all other assays above

CCCCOC(=O)c1ccc(-n2nc(C(=O)OCCCC)c(C(=O)c3ccccc3)c2-c2ccccc2)cc1
244 µM: [6]
122 µM: [1] | [7] | [8]
inactive: all other assays above

O=C(NCc1ccccc1)NC(=O)c1ccc(-n2nc(C(=O)NC(=O)NCc3ccccc3)c(C(=O)c3ccccc3)c2-c2ccccc2)cc1
189 µM: [1]
95 µM: [7] | [8]
inactive: all other assays above

O=C(O)c1ccc(-n2nc3c(=O)n(-c4ccc(C(=O)O)cc4)nc(-c4ccccc4)c3c2-c2ccccc2)cc1
242 µM: [1] | [3]
121 µM: [7] | [8]
inactive: all other assays above

O=C(NC(=O)c1ccc(-n2nc(C(=O)NC(=O)Nc3ccccc3)c(C(=O)c3ccccc3)c2-c2ccccc2)cc1)Nc1ccccc1
197 µM: [1]
99 µM: [7] | [8]
inactive: all other assays above

COC(=O)c1ccc(-n2nc(C(=O)OC)c(C(=O)c3ccccc3)c2-c2ccccc2)cc1
145 µM: [7] | [8]
290 µM: [1]
inactive: all other assays above

CNC(=O)NC(=O)c1ccc(-n2nc(C(=O)NC(=O)NC)c(C(=O)c3ccccc3)c2-c2ccccc2)cc1
122 µM: [7] | [8]
244 µM: [1]
inactive: all other assays above
